Data: patent publication US10266548B2, “Substituted benzylindazoles for use as Bub1 kinase inhibitors in the treatment of hyperproliferative diseases” (Bayer Intellectual Property GmbH, priority 2011, dated 2019)
Read-outs that look alike come from different tables or passages of the source.

Assays:
[1] = molecular target: catalytic domain of human Bub1 (amino acids 704-1085) (Homo sapiens (Human), UniProt O43683); assay: Bub1 kinase assay (TR-FRET); format: biochemical; conditions: 10 μM ATP, 1 μM peptide substrate; read-out: Biological Assay 1: Bub1 kinase assay median IC50
Procedure: To this end, 100-fold concentrated compound solutions (in DMSO) were previously prepared by serial dilution (1:3.4) of 2 mM stocks in a clear low volume 384-well source microtiter plate (Greiner Bio-One, Frickenhausen, Germany), from which 50 nl of compounds were transferred into a black low volume test microtiter plate from the same supplier. […] The resulting mixture (5 μl final volume) was incubated at 22° C. during 60 min., and the reaction was stopped by the addition of 5 μl of an aqueous EDTA-solution (50 mM EDTA, in 100 mM HEPES pH 7.5 and 0.2% (w/v) bovine serum albumin) which also contained the TR-FRET detection reagents (0.2 μM streptavidin-XL665 [Cisbio Bioassays, Codolet, France] and 1 nM anti-phosho-Serine antibody [Merck Millipore, cat. #35-001] and 0.4 nM LANCE EU-W1024 labeled anti-mouse IgG antibody [Perkin-Elmer, product no. AD0077, alternatively a Terbium-cryptate-labeled anti-mouse IgG antibody from Cisbio Bioassays can be used]). The stopped reaction mixture was further incubated 1 h at 22° C. in order to allow the formation of complexes between peptides and detection reagents. Subsequently, the amount of product was evaluated by measurement of the resonance energy transfer from the Eu-chelate-antlbody complex recognizing the Phosphoserlne residue to the streptavidin-XL665 bound to the biotin moiety of the peptide. […] IC50 values were calculated by fitting the normalized inhibition data to a 4-parameter logistic equation (Minimum, Maximum, IC50, Hill; Y=Max+(Min−Max)/(1+(X/IC50)Hill)) using a Bayer-proprietary analysis software.

HeLa cells = assay: Proliferation assay (HeLa cell line); format: cell-based; conditions: Homo sapiens, 96 h, read-out: Biological Assay 2: Proliferation assay (HeLa cell line) median IC50
Procedure: Cultivated tumor cells (cells were ordered from ATCC, except HeLa-MaTu and HeLa-MaTu-ADR, which were ordered from EPO-GmbH, Berlin) were plated at a density of 1000 to 5000 cells/well, depending on the growth rate of the respective cell line, in a 96-well multititer plate in 200 μL of their respective growth medium supplemented 10% fetal calf serum. After 24 hours, the cells of one plate (zero-point plate) were stained with crystal violet (see below), while the medium of the other plates was replaced by fresh culture medium (200 μl), to which the test substances were added in various concentrations (0 μM, as well as in the range of 0.001-10 μM; the final concentration of the solvent dimethyl sulfoxide was 0.5%). The cells were incubated for 4 days in the presence of test substances. Cell proliferation was determined by staining the cells with crystal violet: the cells were fixed by adding 20 μl/measuring point of an 11% glutaric aldehyde solution for 15 minutes at room temperature. After three washing cycles of the fixed cells with water, the plates were dried at room temperature. The cells were stained by adding 100 μl/measuring point of a 0.1% crystal violet solution (pH 3.0). After three washing cycles of the stained cells with water, the plates were dried at room temperature. The dye was dissolved by adding 100 μl/measuring point of a 10% acetic acid solution. […] The change of cell number, in percent, was calculated by normalization of the measured values to the aborbtion values of the zero-point plate (=0%) and the absorbtion of the untreated (0 μm) cells (=100%). The IC50 values were determined by means of a 4 parameter fit using the company's own software.

Sequence of catalytic domain of human Bub1 (amino acids 704-1085) (O43683 704-1085): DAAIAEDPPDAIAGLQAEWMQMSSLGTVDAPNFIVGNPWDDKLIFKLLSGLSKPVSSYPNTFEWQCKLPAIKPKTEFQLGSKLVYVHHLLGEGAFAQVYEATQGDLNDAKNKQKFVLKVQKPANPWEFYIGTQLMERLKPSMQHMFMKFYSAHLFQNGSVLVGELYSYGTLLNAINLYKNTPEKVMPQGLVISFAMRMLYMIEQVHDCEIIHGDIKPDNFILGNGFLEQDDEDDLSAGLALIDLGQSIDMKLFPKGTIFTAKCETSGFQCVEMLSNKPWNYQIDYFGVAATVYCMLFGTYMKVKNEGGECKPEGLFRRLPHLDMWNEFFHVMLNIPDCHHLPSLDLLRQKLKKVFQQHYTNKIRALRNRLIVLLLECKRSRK

SMILES	IC50 [1] [nM]	IC50 (HeLa cells; 4 days, crystal violet) [µM]	IC50 (HeLa cells) [µM]
COc1cnc(-c2nn(Cc3ccccc3C#N)c3ccccc23)nc1Nc1ccncc1 [Example 2-5-3, 2-({3-[5-methoxy-4-(pyridin-4-ylamino)pyrimidin-2-yl]-1H-indazol-1-yl}methyl) benzonitrile]	21		≥ 10
COc1cnc(-c2nn(Cc3cccc4c3OCCCO4)c3ccccc23)nc1Nc1ccncc1 [Example 2-6-3, 2-[1-(3,4-dihydro-2H-1,5-benzo-dioxepin-6-ylmethyl)-1H-indazol-3-yl]-5-methoxy-N-(pyridin-4-yl)pyrimidin-4-amine]	59		≥ 10
COc1cnc(-c2nn(Cc3c(F)cccc3F)c3ccccc23)nc1Nc1ccncc1 [Example 2-7-1, 2-[1-(2,6-difluorobenzyl)-1H-indazol-3-yl]-5-methoxy-N-(pyridin-4-yl)pyrimidin-4-amine]	4.8		≥ 10
COc1cnc(-c2nn(Cc3cccc(SC(F)(F)F)c3)c3ccccc23)nc1Nc1ccncc1 [Example 2-7-3, 5-methoxy-N-(pyridin-4-yl)-2-(1-{3-[(trifluoromethyl)sulfanyl]benzyl}-1H-indazol-3-yl)pyrimidin-4-amine]	430		≥ 10
COc1cnc(-c2nn(Cc3ccccc3Cl)c3ccccc23)nc1Nc1ccncc1 [Example 2-10-1, 2-[1-(2-chlorobenzyl)-1H-indazol-3-yl]-5-methoxy-N-(pyridin-4-yl)pyrimidin-4-amine]	6.7		≥ 10
CCOc1ccc(Cn2nc(-c3ncc(OC)c(Nc4ccncc4)n3)c3ccccc32)c(F)c1F [Example 2-14-1, 2-[1-(4-ethoxy-2,3-difluorobenzyl)-1H-indazol-3-yl]-5-methoxy-N-(pyridin-4-yl)pyrimidin-4-amine]	8.3		4.7
COc1cnc(-c2nn(Cc3c(F)cc(F)cc3F)c3ccccc23)nc1Nc1ccncc1 [Example 2-17-1, 5-methoxy-N-(pyridin-4-yl)-2-[1-(2,4,6-trifluorobenzyl)-1H-indazol-3-yl]pyrimidin-4-amine]	8.8		≥ 10
COc1cnc(-c2nn(Cc3ccc(I)cc3F)c3ccccc23)nc1Nc1ccncc1 [Example 2-20-1, 2-[1-(2-fluoro-4-iodobenzyl)-1H-indazol-3-yl]-5-methoxy-N-(pyridin-4-yl)pyrimidin-4-amine]	11		7.3
COc1cnc(-c2nn(Cc3ccccc3Br)c3ccccc23)nc1Nc1ccncc1 [Example 2-21-1, 2-[1-(2-bromobenzyl)-1H-indazol-3-yl]-5-methoxy-N-(pyridin-4-yl)pyrimidin-4-amine]	12		≥ 10
COc1ccc(Cn2nc(-c3ncc(OC)c(Nc4ccncc4)n3)c3ccccc32)cc1 [Example 2-23-1, 5-methoxy-2-[1-(4-methoxybenzyl)-1H-indazol-3-yl]-N-(pyridin-4-yl)pyrimidin-4-amine]	13		9.3
COc1cnc(-c2nn(Cc3ccc(I)cc3Cl)c3ccccc23)nc1Nc1ccncc1 [Example 2-28-1, 2-[1-(2-chloro-4-iodobenzyl)-1H-indazol-3-yl]-5-methoxy-N-(pyridin-4-yl)pyrimidin-4-amine]	22		8.1

The next lines start with results.

IC50 [1] [nM]	IC50 (HeLa cells; 4 days, crystal violet) [µM]	SMILES	IC50 (HeLa cells) [µM]
360	8.5	COc1cnc(-c2nn(Cc3ccc(S(F)(F)(F)(F)F)cc3)c3ccccc23)nc1Nc1ccncc1 [Example 2-3-3, 5-methoxy-2-{1-[4-(pentafluoro-λ^6-sulfanyl)benzyl]-1H-indazol-3-yl}-N-(pyridin-4-yl)pyrimidin-4-amine]	
4.7	3.8	COc1ccc(Cn2nc(-c3ncc(OC)c(Nc4ccncc4)n3)c3ccccc32)c(Cl)c1 [Example 2-6-1, 2-[1-(2-chloro-4-methoxybenzyl)-1H-indazol-3-yl]-5-methoxy-N-(pyridin-4-yl)pyrimidin-4-amine]	
6.7	≥ 10	COc1cnc(-c2nn(Cc3ccc(C)c(F)c3F)c3ccccc23)nc1Nc1ccncc1 [Example 2-8-1, 2-[1-(2,3-difluoro-4-methylbenzyl)-1H-indazol-3-yl]-5-methoxy-N-(pyridin-4-yl)pyrimidin-4-amine]	
57	10	COc1cnc(-c2nn(Cc3ccc(-n4cccn4)cc3)c3ccccc23)nc1Nc1ccncc1 [Example 2-8-3, 5-methoxy-2-{1-[4-(1H-pyrazol-1-yl)benzyl]-1H-indazol-3-yl}-N-(pyridin-4-yl)pyrimidin-4-amine]	
8	3.8	COc1cnc(-c2nn(Cc3ccc(F)c(OC)c3Cl)c3ccccc23)nc1Nc1ccncc1 [Example 2-13-1, 2-[1-(2-chloro-4-fluoro-3-methoxybenzyl)-1H-indazol-3-yl]-5-methoxy-N-(pyridin-4-yl)pyrimidin-4-amine]	
38	4.7	COc1cnc(-c2nn(Cc3c(F)c(F)c(OCC(F)(F)F)c(F)c3F)c3ccccc23)nc1Nc1ccncc1 [Example 2-15-1, 5-methoxy-N-(pyridin-4-yl)-2-{1-[2,3,5,6-tetrafluoro-4-(2,2,2-trifluoroethoxy)benzyl]-1H-indazol-3-yl}pyrimidin-4-amine]	
10	3.4	COc1cnc(-c2nn(Cc3ccc(Cl)cc3Cl)c3ccccc23)nc1Nc1ccncc1 [Example 2-19-1, 2-[1-(2,4-dichlorobenzyl)-1H-indazol-3-yl]-5-methoxy-N-(pyridin-4-yl)pyrimidin-4-amine]	
840	2.9	COc1cnc(-c2nn(Cc3c(Cl)cc(OC(F)(F)F)cc3Cl)c3ccccc23)nc1N(Cc1c(Cl)cc(OC(F)(F)F)cc1Cl)c1ccncc1 [Example 2-26-2, N-[2,6-dichloro-4-(trifluoromethoxy)benzyl]-2-{1-[2,6-dichloro-4-(trifluoromethoxy)benzyl]-1H-indazol-3-yl}-5-methoxy-N-(pyridin-4-yl)pyrimidin-4-amine]	
20	≥ 10	COc1cnc(-c2nn(Cc3ccc4c(c3)NC(=O)CC4)c3ccccc23)nc1Nc1ccncc1 [Example 2-27-1, 7-({3-[5-methoxy-4-(pyridin-4-ylamino)pyrimidin-2-yl]-1H-indazol-1-yl}methyl)-3,4-dihydroquinolin-2(1H)-one]	
23	9	COc1cc(Cn2nc(-c3ncc(OC)c(Nc4ccncc4)n3)c3ccccc32)cc(OC)c1 [Example 2-29-1, 2-[1-(3,5-dimethoxybenzyl)-1H-indazol-3-yl]-5-methoxy-N-(pyridin-4-yl)pyrimidin-4-amine]	
23	2.2	COc1cnc(-c2nn(Cc3c(Cl)cccc3C(F)(F)F)c3ccccc23)nc1Nc1ccncc1 [Example 2-30-1, 2-{1-[2-chloro-6-(trifluoromethyl)benzyl]-1H-indazol-3-yl}-5-methoxy-N-(pyridin-4-yl)pyrimidin-4-amine]	
28	≥ 10	COc1cnc(-c2nn(Cc3cc(F)ccc3Cl)c3ccccc23)nc1Nc1ccncc1 [Example 2-31-1, 2-[1-(2-chloro-5-fluorobenzyl)-1H-indazol-3-yl]-5-methoxy-N-(pyridin-4-yl)pyrimidin-4-amine]	
38	≥ 10	COc1cnc(-c2nn(Cc3ccc(C#N)cc3F)c3ccccc23)nc1Nc1ccncc1 [Example 2-33-1, 3-fluoro-4-({3-[5-methoxy-4-(pyridin-4-ylamino)pyrimidin-2-yl]-1H-indazol-1-yl}methyl)benzonitrile]	
52	≥ 10	CCOC(=O)Cc1cccc(Cn2nc(-c3ncc(OC)c(Nc4ccncc4)n3)c3ccccc32)c1 [Example 2-35-1, ethyl [3-({3-[5-methoxy-4-(pyridin-4-ylamino)pyrimidin-2-yl]-1H-indazol-1-yl}methyl)phenyl]acetate]	
